The data set is described as follows: Vancomycin pharmacokinetics, serum concentration after IO vs IV delivery. The data set is classed as in vivo, New Zealand White rabbits. The following applies: rabbit, samples T0-T6, LC-MS/MS (Fig. 7A).

Consider `CN[C@H](CC(C)C)C(=O)N[C@H]1C(=O)N[C@@H](CC(N)=O)C(=O)N[C@H]2C(=O)N[C@H]3C(=O)N[C@H](C(=O)N[C@H](C(=O)O)c4cc(O)cc(O)c4-c4cc3ccc4O)[C@H](O)c3ccc(c(Cl)c3)Oc3cc2cc(c3O[C@@H]2O[C@H](CO)[C@@H](O)[C@H](O)[C@H]2O[C@H]2C[C@](C)(N)[C@H](O)[C@H](C)O2)Oc2ccc(cc2Cl)[C@H]1O` [vancomycin], for which the “Serum vancomycin profile across time, IO delivery” value (30 mg/kg IO over 30 min) is reported as “slight peak but remained at relatively consistent serum levels across time points”. Further, for the setting “30 mg/kg IV over 30 min”, the “Serum vancomycin profile across time, IV delivery” value is “high systemic peak soon after bolus delivery with a steady decline across time”.

Source of the values: article PMC11892714 (OTA International, 2025).
